Literature values, collected in US12357678B2, “Cancer stem cell targeted cancer vaccines” (priority 2012, dated 2025).

Legend:
[1] = test system: IL-13Ra2 positive, HLA-A2 positive glioma cells
T cells = conditions: mutant vs wild type IL-13Rα2345-353
HLA-A2 = conditions: mutant vs wild type IL-13Rα2345-353

Substance: ALPFGFILV (Amino acid residues 345-353 of IL-13 Receptor alpha mutation of W to A at position 345 and I to V at position 353) [IL-13Rα2345-353:1A9V, IL-13Rα2 345-353 with mutation of W to A at position 345 and I to V at position 353]
- killing of glioma cells by T cells stimulated with the peptide, relative to wild type ([1]; T cells stimulated with mutant vs wild type peptide): more effective at killing glioma cells
- T cell response (immunogenicity) relative to wild type peptide (T cells): more robust T cell response
- affinity for HLA-A2 relative to wild type peptide (HLA-A2): increased the affinity for HLA-A2

Substance: ELMLG EFLKL (ELMLGEFLKL; Amino acid residues 95-104 of Survivin with a methionine substitution at position 3) [SEQ ID NO:9, Survivin 95-104 with a methionine substitution at position 3]
- activation of T cells cytotoxic to cancer cells (cancer cells): able to activate T cells that were cytotoxic to cancer cells
- immunogenicity of survivin analog peptide (cancer cells): immunogenic

Substance: WLPFGFILI (Amino acid residues 345-353 of IL-13 Receptor alpha; listed as Homo sapiens) [IL-13Rα2345-353, Amino acid residues 345-353 of Interleukin-13 Receptor alpha]
- lysis of glioma cells by CTL lines generated by stimulation of CD8+ cells with the peptide ([1]; IL-13Ra2 positive, HLA-A2 positive glioma cells, antigen-specific): efficiently lysed
